From ChEMBL document CHEMBL1137864, “End-capping of the modified melanocortin tetrapeptide (p-Cl)Phe-D-Phe-Arg-Trp-NH2 as a route to hMC4R agonists” (Bioorg Med Chem Lett, 2004)

Key:
Melanocortin receptor 4 = Melanocortin receptor 4 (Homo sapiens, UniProt P32245); assay: Agonistic activity against human Melanocortin 4 receptor; type: functional
[1] = target: Melanocortin receptor (M1 and M4) (Homo sapiens) (UniProt P32245+Q01726); assay: Ratio of EC50 of Melanocortin 4 receptor to that of Melanocortin 1 receptor; type: protein assay
[2] = target: Melanocortin receptor (M3 and M4) (Homo sapiens) (UniProt P32245+P41968); assay: Ratio of EC50 of Melanocortin 4 receptor to that of Melanocortin 3 receptor; type: protein assay
Melanocortin receptor 3 = Melanocortin receptor 3 (Homo sapiens, UniProt P41968); assay: Agonistic activity against human Melanocortin 3 receptor; type: functional
Sequence of Melanocortin receptor 3 (P41968 whole entry): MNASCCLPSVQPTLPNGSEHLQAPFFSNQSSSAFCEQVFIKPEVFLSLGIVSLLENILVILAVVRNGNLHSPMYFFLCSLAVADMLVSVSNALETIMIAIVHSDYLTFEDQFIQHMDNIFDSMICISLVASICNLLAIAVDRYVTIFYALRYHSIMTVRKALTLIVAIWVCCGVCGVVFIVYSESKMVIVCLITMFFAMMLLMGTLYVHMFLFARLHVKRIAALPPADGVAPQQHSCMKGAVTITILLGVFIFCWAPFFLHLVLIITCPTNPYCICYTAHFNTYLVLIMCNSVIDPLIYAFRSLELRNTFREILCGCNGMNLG

[3] = target: Melanocyte-stimulating hormone receptor (Homo sapiens, UniProt Q01726); assay: Agonistic activity against human Melanocortin 1 receptor; type: functional
Sequence of Melanocyte-stimulating hormone receptor (Q01726 whole entry): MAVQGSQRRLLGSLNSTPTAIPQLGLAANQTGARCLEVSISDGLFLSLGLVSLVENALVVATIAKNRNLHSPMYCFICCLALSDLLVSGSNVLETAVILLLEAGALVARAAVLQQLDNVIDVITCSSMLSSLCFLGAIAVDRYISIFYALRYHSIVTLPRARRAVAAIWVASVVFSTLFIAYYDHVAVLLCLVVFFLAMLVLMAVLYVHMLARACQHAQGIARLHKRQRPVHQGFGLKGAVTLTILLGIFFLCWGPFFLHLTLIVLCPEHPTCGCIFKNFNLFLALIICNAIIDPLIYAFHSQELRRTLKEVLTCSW

Sequence of Melanocortin receptor 4 (P32245 whole entry): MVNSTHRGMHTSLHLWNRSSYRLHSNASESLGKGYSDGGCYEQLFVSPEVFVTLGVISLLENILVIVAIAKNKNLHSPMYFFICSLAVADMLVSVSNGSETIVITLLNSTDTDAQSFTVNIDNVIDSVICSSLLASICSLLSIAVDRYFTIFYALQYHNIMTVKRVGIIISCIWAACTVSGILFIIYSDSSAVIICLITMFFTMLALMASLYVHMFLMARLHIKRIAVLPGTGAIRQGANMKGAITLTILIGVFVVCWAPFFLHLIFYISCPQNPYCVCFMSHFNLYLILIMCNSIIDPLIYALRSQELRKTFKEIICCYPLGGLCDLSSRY

EC50 (Melanocortin receptor 4) [nM]	Ratio [1]	Ratio [2]	EC50 (Melanocortin receptor 3) [nM]	EC50 [3] [nM]	SMILES
114	4	13	1450	499	N=C(N)NCCC[C@H](NC(=O)C(Cc1ccccc1)NC(=O)[C@H](Cc1ccc(Cl)cc1)NC(=O)CO)C(=O)N[C@@H](Cc1c[nH]c2ccccc12)C(N)=O (stereo in doubt)
31.3	11	5	164	349	N=C(N)NCCC[C@H](NC(=O)C(Cc1ccccc1)NC(=O)[C@H](Cc1ccc(Cl)cc1)NC(=O)C(N)=O)C(=O)N[C@@H](Cc1c[nH]c2ccccc12)C(N)=O (stereo in doubt)
10.5	54	290	3040	567	N#CCC(=O)N[C@@H](Cc1ccc(Cl)cc1)C(=O)NC(Cc1ccccc1)C(=O)N[C@@H](CCCNC(=N)N)C(=O)N[C@@H](Cc1c[nH]c2ccccc12)C(N)=O (stereo in doubt)
13.7	62	63	863	856	C=CCC(=O)N[C@@H](Cc1ccc(Cl)cc1)C(=O)NC(Cc1ccccc1)C(=O)N[C@@H](CCCNC(=N)N)C(=O)N[C@@H](Cc1c[nH]c2ccccc12)C(N)=O (stereo in doubt)
20	35	2	43	699	N=C(N)NCCC[C@H](NC(=O)C(Cc1ccccc1)NC(=O)[C@H](Cc1ccc(Cl)cc1)NC(=O)Cc1ccccc1)C(=O)N[C@@H](Cc1c[nH]c2ccccc12)C(N)=O (stereo in doubt)
12	42	4	45	505	C=CCNC(=O)N[C@@H](Cc1ccc(Cl)cc1)C(=O)NC(Cc1ccccc1)C(=O)N[C@@H](CCCNC(=N)N)C(=O)N[C@@H](Cc1c[nH]c2ccccc12)C(N)=O (stereo in doubt)

The next lines start with the compound.

SMILES	EC50 (Melanocortin receptor 4) [nM]	Ratio [1]	Ratio [2]	EC50 (Melanocortin receptor 3) [nM]	EC50 [3] [nM]
N=C(N)NCCC[C@H](NC(=O)C(Cc1ccccc1)NC(=O)[C@H](Cc1ccc(Cl)cc1)NC(=O)Nc1ccccc1)C(=O)N[C@@H](Cc1c[nH]c2ccccc12)C(N)=O (stereo in doubt)	146	7	0.6	92.5	985
CC(=O)N[C@@H](Cc1ccc(Cl)cc1)C(=O)NC(Cc1ccccc1)C(=O)N[C@@H](CCCN=C(N)N)C(=O)N[C@@H](Cc1c[nH]c2ccccc12)C(N)=O (stereo in doubt)	88.5	10	6	553	867
N=C(N)NCCC[C@H](NC(=O)C(Cc1ccccc1)NC(=O)[C@H](Cc1ccc(Cl)cc1)NC(=O)CCc1ccccc1)C(=O)N[C@@H](Cc1c[nH]c2ccccc12)C(N)=O (stereo in doubt)	121	4	1	170	442
CCC(=O)N[C@@H](Cc1ccc(Cl)cc1)C(=O)NC(Cc1ccccc1)C(=O)N[C@@H](CCCN=C(N)N)C(=O)N[C@@H](Cc1c[nH]c2ccccc12)C(N)=O (stereo in doubt)	159	12	15	2360	1980
N=C(N)NCCC[C@H](NC(=O)C(Cc1ccccc1)NC(=O)[C@H](Cc1ccc(Cl)cc1)NC(=O)CCCCc1ccccc1)C(=O)N[C@@H](Cc1c[nH]c2ccccc12)C(N)=O (stereo in doubt)	45	3	1	34.5	144
